Assay results from patent publication US9783537B2, “3-(4-ethylnylphenyl) pyridopyrimidinone compounds and process for preparation thereof useful as potential anticancer agents” (Council of Scientific & Industrial Research, priority 2013, dated 2017).
Where two headings read alike, the source gives them in different places.

Assays:
[1] = test system: two prostate cancer cell line (PC-3, DU-145); test: in vitro anticancer activity, prostate panel; format: cell-based; conditions: Homo sapiens; two prostate cancer cell lines, exposure at least 48 h; read-out: GI50, range over panel
ACHN = test: SRB 48 h growth assay, Renal ACHN; format: cell-based, human
HS578T = test: SRB 48 h growth assay, Breast HS578T; format: cell-based, human
HL-60(TB) = test: SRB 48 h growth assay, Leukemia HL-60(TB); format: cell-based, human
[2] = test system: six leukemia cancer cell lines (CCRF-CEM, HL-60, K-562, MOLT-4, SR and RPMI-8226); test: in vitro anticancer activity, leukemia panel; format: cell-based; conditions: Homo sapiens, exposure at least 48 h, read-out: GI50, range over panel
DU-145 = test: SRB 48 h growth assay, Prostate DU-145; format: cell-based, human; conditions: DU-145, Prostate
MDA-MB-468 = test: SRB 48 h growth assay, Breast MDA-MB-468; format: cell-based, human; conditions: MDA-MB-468, Breast
HCC-2998 = test: SRB 48 h growth assay, Colon HCC-2998; format: cell-based, human; conditions: HCC-2998, Colon
NCI-H23 = test: SRB 48 h growth assay, Non-small Cell Lung NCI-H23; format: cell-based, human
SN12C = test: SRB 48 h growth assay, Renal SN12C; format: cell-based, human
[3] = in vitro anticancer activity, non-small cell lung panel; format: cell-based; conditions: Homo sapiens; nine non-small cell lung cancer cell lines, exposure at least 48 h; read-out: GI50, range over panel
SF-268 = test: SRB 48 h growth assay, CNS SF-268; format: cell-based, human; conditions: SF-268, CNS
SK-MEL-2 = test: SRB 48 h growth assay, Melanoma SK-MEL-2; format: cell-based, human; conditions: SK-MEL-2, Melanoma
OVCAR-5 = test: SRB 48 h growth assay, Ovarian OVCAR-5; format: cell-based, human; conditions: OVCAR-5, Ovarian
[4] = test system: six breast cancer cell line (MCF-7, MDA-MB-231/ATCC, HS 578T, TD-47D, MDA-MB-468 and BT-549); test: in vitro anticancer activity, breast panel; format: cell-based; conditions: Homo sapiens; six breast cancer cell lines, exposure at least 48 h; read-out: GI50, range over panel
RXF393 = test: SRB 48 h growth assay, Renal RXF393; format: cell-based, human
NCI-H322M = test: SRB 48 h growth assay, Non-small Cell Lung NCI-H322M; format: cell-based, human
SK-MEL-28 = test: SRB 48 h growth assay, Melanoma SK-MEL-28; format: cell-based, human; conditions: SK-MEL-28, Melanoma
SNB-19 = test: SRB 48 h growth assay, CNS SNB-19; format: cell-based, human; conditions: SNB-19, CNS
KM12 = test: SRB 48 h growth assay, Colon KM12; format: cell-based, human
HOP-62 = test: SRB 48 h growth assay, Non-small Cell Lung HOP-62; format: cell-based, human; conditions: HOP-62, Non-small Cell Lung
SW-620 = test: SRB 48 h growth assay, Colon SW-620; format: cell-based, human; conditions: SW-620, Colon
T-47D = test: SRB 48 h growth assay, Breast T-47D; format: cell-based, human
MCF7 = test: SRB 48 h growth assay, Breast MCF7; format: cell-based, human
MDA-MB-435 = test: SRB 48 h growth assay, Melanoma MDA-MB-435; format: cell-based, human; conditions: MDA-MB-435, Melanoma
LOX IMVI = test: SRB 48 h growth assay, Melanoma LOX IMVI; format: cell-based, human
BT-549 = test: SRB 48 h growth assay, Breast BT-549; format: cell-based, human; conditions: BT-549, Breast
[5] = Homo sapiens, read-out: Growth Inhibition GI50
[6] = Homo sapiens, read-out: Log10 GI50 (converted)
[7] = Homo sapiens, read-out: Log10 LC50 (converted)

## C#Cc1ccc(-n2c(/C=C/c3ccc(C(F)(F)F)cc3)nc3ncccc3c2=O)cc1 [4c, (E)-3-(4-Ethynylphenyl)-2-(4-(trifluoromethyl)styryl)pyrido[2,3-d]pyrimidin-4(3H)-one]
[1]
  GI50: 2350 to 7450 nM
ACHN
  Log10 TGI50: −5.49
ACHN; [5]
  GI50: 1710 nM
ACHN; [6]
  GI50: 1700 nM
ACHN; [7]
  CC50: 6170 nM
HS578T
  Log10 TGI50: >−4.00
HS578T; Homo sapiens, Hs-578T, read-out: Growth Inhibition GI50
  GI50: 3460 nM
HS578T; Homo sapiens, Hs-578T, read-out: Log10 GI50 (converted)
  GI50: 3470 nM
HS578T; Homo sapiens, Hs-578T, read-out: Log10 LC50 (converted)
  CC50: > 100000 nM
HL-60(TB)
  Log10 TGI50: −5.22
HL-60(TB); [5]
  GI50: 2070 nM
HL-60(TB); [6]
  GI50: 2090 nM
HL-60(TB); [7]
  CC50: > 100000 nM
[2]
  GI50: 450 to 2430 nM
DU-145
  Log10 TGI50: −4.92
DU-145; [5]
  GI50: 3760 nM
DU-145; [6]
  GI50: 3720 nM
DU-145; [7]
  CC50: 38900 nM
MDA-MB-468; [5]
  GI50: 1510 nM
MDA-MB-468; [6]
  GI50: 1510 nM
MDA-MB-468; [7]
  CC50: 8710 nM
MDA-MB-468
  Log10 TGI50: −5.44
HCC-2998
  Log10 TGI50: −5.46
HCC-2998; [5]
  GI50: 1960 nM
HCC-2998; [6]
  GI50: 1950 nM
HCC-2998; [7]
  CC50: 6170 nM
NCI-H23
  Log10 TGI50: −4.72
NCI-H23; [5]
  GI50: 3900 nM
NCI-H23; [6]
  GI50: 3890 nM
NCI-H23; [7]
  LC50: > 100000 nM
SN12C
  Log10 TGI50: −5.25
SN12C; [5]
  GI50: 2080 nM
SN12C; [6]
  GI50: 2090 nM
SN12C; [7]
  CC50: > 100000 nM
[3]
  GI50: 1630 to 7450 nM
SF-268; [5]
  GI50: 2270 nM
SF-268; [6]
  GI50: 2290 nM
SF-268; [7]
  CC50: 24500 nM
SF-268
  Log10 TGI50: −5.23
SK-MEL-2; [5]
  GI50: 2030 nM
SK-MEL-2; [6]
  GI50: 2040 nM
SK-MEL-2; [7]
  CC50: 8320 nM
SK-MEL-2
  Log10 TGI50: −5.39
OVCAR-5; [5]
  GI50: 1940 nM
OVCAR-5; [6]
  GI50: 1950 nM
OVCAR-5; [7]
  CC50: 6610 nM
OVCAR-5
  Log10 TGI50: −5.45
[4]
  GI50: 960 to 7620 nM
RXF393
  Log10 TGI50: −5.42
RXF393; Homo sapiens, RXF 393, read-out: Growth Inhibition GI50
  GI50: 1790 nM
RXF393; Homo sapiens, RXF 393, read-out: Log10 GI50 (converted)
  GI50: 1780 nM
RXF393; Homo sapiens, RXF 393, read-out: Log10 LC50 (converted)
  CC50: 7940 nM
NCI-H322M
  Log10 TGI50: −5.15
NCI-H322M; [5]
  GI50: 2250 nM
NCI-H322M; [6]
  GI50: 2240 nM
NCI-H322M; [7]
  CC50: 27500 nM
SK-MEL-28; [5]
  GI50: 1780 nM
SK-MEL-28; [6]
  GI50: 1780 nM
SK-MEL-28; [7]
  CC50: 6030 nM
SK-MEL-28
  Log10 TGI50: −5.49
SNB-19; [5]
  GI50: 1910 nM
SNB-19; [6]
  GI50: 1910 nM
SNB-19; [7]
  CC50: 9550 nM
SNB-19
  Log10 TGI50: −5.37
KM12
  Log10 TGI50: −5.46
KM12; [5]
  GI50: 1790 nM
KM12; [6]
  GI50: 1780 nM
KM12; [7]
  CC50: 6610 nM
HOP-62
  Log10 TGI50: −5.29
HOP-62; [5]
  GI50: 2430 nM
HOP-62; [6]
  GI50: 2450 nM
HOP-62; [7]
  CC50: > 100000 nM
SW-620; [5]
  GI50: 1920 nM
SW-620; [6]
  GI50: 1910 nM
SW-620; [7]
  CC50: 7410 nM
SW-620
  Log10 TGI50: −5.42
T-47D
  Log10 TGI50: −5.30
T-47D; Homo sapiens, T47D, read-out: Growth Inhibition GI50
  GI50: 2020 nM
T-47D; Homo sapiens, T47D, read-out: Log10 GI50 (converted)
  GI50: 2000 nM
T-47D; Homo sapiens, T47D, read-out: Log10 LC50 (converted)
  CC50: 28200 nM
MCF7
  Log10 TGI50: −4.99
MCF7; [5]
  GI50: 2490 nM
MCF7; [6]
  GI50: 2510 nM
MCF7; [7]
  CC50: > 100000 nM
MDA-MB-435; [5]
  GI50: 2270 nM
MDA-MB-435; [6]
  GI50: 2290 nM
MDA-MB-435; [7]
  CC50: > 100000 nM
MDA-MB-435
  Log10 TGI50: −5.19
LOX IMVI
  Log10 TGI50: −5.37
LOX IMVI; [5]
  GI50: 1890 nM
LOX IMVI; [6]
  GI50: 1910 nM
LOX IMVI; [7]
  CC50: 9770 nM
BT-549
  Log10 TGI50: −5.47
BT-549; [5]
  GI50: 1710 nM
BT-549; [6]
  GI50: 1700 nM
BT-549; [7]
  CC50: 6610 nM
